Our source for the pKa values is US20260182217A1, “DISPLAY PANEL, ELECTRONIC DEVICE INCLUDING THE SAME, AND METHOD FOR MANUFACTURING THE DISPLAY PANEL” (priority 2024, published 2026).

A short description of the series: physchem.

Take `CCCCCCCCC(=O)O` [A11]: the pKa is 5.
